Laboratory results published in patent publication US11260139B2, “Rapid surface disinfection method and apparatus” (priority 2011, dated 2022).

Test system: S. aureus bacteria
Assay: survival of S. aureus bacteria on agar culture plates following 3 sec. exposure to atomized liquid
Format: cell-based
Conditions: for antimicrobial effectiveness of the liquid as solvent of the nitric oxide solution: liquid atomized with NO, rank: ethanol>isopropanol>water
Description: The survival fraction is the fraction of at least 100 colonies that survive the treatment. Control plates were exposed to air for 3 sec. Ethanol plates were exposed to ethanol atomized with nitrogen. 25% NO plates were exposed to ethanol atomized with 25% NO and 75% nitrogen.
Experiments were conducted on agar culture plates to compare nitric oxide concentrations ranging from 0% in nitrogen (the ‘ethanol’ experiment) to 100% NO.

Compound	effect of NO on the antimicrobial activity of the atomized liquid (NO concentrations 0% to 100% in nitrogen compared)	antimicrobial effectiveness of the liquid as solvent of the nitric oxide solution
[N]=O [NO, nitric oxide]	dramatically increases the antimicrobial activity	
CCO [ethanol]		effective
CC(C)O [isopropanol]		effective
O [water]		effective
